Values joined by “and” are separate entries in the source; they are usually repeats but may differ in a detail not shown here. Equal entries are not always repeated. Inconclusive results are not listed.
Tested on: BDF1 mice, colon carcinoma 38 sc, T/C %
Test: NCI In Vivo Anticancer Drug Screen. Data for tumor model Colon Carcinoma 38 (subcutaneous) in B6D2F1 (BDF1) mice
In short: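 Mice with transplanted tumors are treated with compound or vehicle. Survival or tumor size is then measured in both groups. The ratio of treated to control gives the reported figure.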

[1] = endpoint: median tumor weight (est.), dose: 6.25 mg/kg/injection, schedule: Q07DX002 (ip), vehicle: Klucel (hydroxypropylcellulose) (HPC), higher = larger tumour
[2] = endpoint: median tumor weight (est.), dose: 12.5 mg/kg/injection, schedule: Q07DX002 (ip), vehicle: Klucel (hydroxypropylcellulose) (HPC), higher = larger tumour

With `COC1=C(Br)[C@H](O)[C@](O)(CC#N)C=C1Br` the T/C (endpoint: median tumor weight (est.), dose: 8.75 mg/kg/injection, schedule: Q07DX002 (ip), vehicle: Klucel (hydroxypropylcellulose) (HPC), higher = larger tumour) was 52 % of control, the T/C (endpoint: median tumor weight (est.), dose: 17.5 mg/kg/injection, schedule: Q07DX002 (ip), vehicle: Klucel (hydroxypropylcellulose) (HPC), higher = larger tumour) was 80 % of control and the T/C (endpoint: median tumor weight (est.), dose: 35.0 mg/kg/injection, schedule: Q07DX002 (ip), vehicle: Klucel (hydroxypropylcellulose) (HPC), higher = larger tumour) was 49 % of control. For the same compound, the T/C (endpoint: median tumor weight (est.), dose: 70.0 mg/kg/injection, schedule: Q07DX002 (ip), vehicle: Klucel (hydroxypropylcellulose) (HPC), higher = larger tumour) was 105 % of control, the T/C (endpoint: median tumor weight (est.), dose: 140.0 mg/kg/injection, schedule: Q07DX002 (ip), vehicle: Klucel (hydroxypropylcellulose) (HPC), higher = larger tumour) was 70 % of control and the T/C (endpoint: median tumor weight (est.), dose: 280.0 mg/kg/injection, schedule: Q07DX002 (ip), vehicle: Klucel (hydroxypropylcellulose) (HPC), higher = larger tumour) was 56 % of control.

In the case of `C=C(C)[C@@H]1CC[C@@H]2C(=CC[C@]3(C)C([C@H](C)CC/C=C(/C)C(=O)O)CC[C@@]23C)[C@@]1(C)CCC(=O)O` (some centres undefined), the T/C (endpoint: median tumor weight (est.), dose: 50.0 mg/kg/injection, schedule: Q07DX002 (ip), vehicle: saline + alcohol, higher = larger tumour) is reported as 90 % of control, the T/C (endpoint: median tumor weight (est.), dose: 100.0 mg/kg/injection, schedule: Q07DX002 (ip), vehicle: saline + alcohol, higher = larger tumour) is reported as 91 % of control and the T/C (endpoint: median tumor weight (est.), dose: 200.0 mg/kg/injection, schedule: Q07DX002 (ip), vehicle: saline + alcohol, higher = larger tumour) is reported as 105 % of control. For the same compound, the T/C (endpoint: median tumor weight (est.), dose: 400.0 mg/kg/injection, schedule: Q07DX002 (ip), vehicle: saline + alcohol, higher = larger tumour) was 45 % of control.

For `CCc1c(CC(=O)O)c2cc(C)ccc2n1Cc1ccc(Cl)cc1`, the T/C (endpoint: median tumor weight (est.), dose: 3.13 mg/kg/injection, schedule: Q07DX002 (ip), vehicle: Klucel (hydroxypropylcellulose) (HPC), higher = larger tumour) was 107 % of control, the T/C [1] was 45 % of control and the T/C (endpoint: median tumor weight (est.), dose: 6.25 mg/kg/injection, schedule: Q07DX003 (ip), vehicle: Klucel (hydroxypropylcellulose) (HPC), higher = larger tumour) was 72 % of control. The T/C [2] was 76 % of control, the T/C (endpoint: median tumor weight (est.), dose: 12.5 mg/kg/injection, schedule: Q07DX003 (ip), vehicle: Klucel (hydroxypropylcellulose) (HPC), higher = larger tumour) was 74 % of control and the T/C (endpoint: median tumor weight (est.), dose: 25.0 mg/kg/injection, schedule: Q07DX002 (ip), vehicle: Klucel (hydroxypropylcellulose) (HPC), higher = larger tumour) was 60 % of control. The T/C (endpoint: median tumor weight (est.), dose: 25.0 mg/kg/injection, schedule: Q07DX003 (ip), vehicle: Klucel (hydroxypropylcellulose) (HPC), higher = larger tumour) was 97 % of control, the T/C (endpoint: median tumor weight (est.), dose: 50.0 mg/kg/injection, schedule: Q07DX002 (ip), vehicle: Klucel (hydroxypropylcellulose) (HPC), higher = larger tumour) was 98 % of control and the T/C (endpoint: median tumor weight (est.), dose: 50.0 mg/kg/injection, schedule: Q07DX003 (ip), vehicle: Klucel (hydroxypropylcellulose) (HPC), higher = larger tumour) was 116 % of control. The T/C (endpoint: median tumor weight (est.), dose: 100.0 mg/kg/injection, schedule: Q07DX002 (ip), vehicle: Klucel (hydroxypropylcellulose) (HPC), higher = larger tumour) was 159 % of control, the T/C (endpoint: median tumor weight (est.), dose: 100.0 mg/kg/injection, schedule: Q07DX003 (ip), vehicle: Klucel (hydroxypropylcellulose) (HPC), higher = larger tumour) was 120 % of control and the T/C (endpoint: median tumor weight (est.), dose: 200.0 mg/kg/injection, schedule: Q07DX003 (ip), vehicle: Klucel (hydroxypropylcellulose) (HPC), higher = larger tumour) was 48 % of control.

`C[C@H]1C/C=C/[C@H]2[C@@H]3O[C@]3(C)[C@@H](C)[C@H]3[C@H](Cc4ccccc4)NC(=O)[C@]32OC(=O)O/C=C/[C@@](C)(O)C1=O` was tested, and the T/C [1] was 79 % of control and the T/C [2] was 88 % of control.

`O=c1[nH]cc(F)c(=O)[nH]1` was tested, and the T/C (endpoint: median survival time, dose: 16.2 mg/kg/injection, schedule: Q04DX002 (ip), vehicle: saline, higher = longer survival) was 119 % of control, the T/C (endpoint: median survival time, dose: 21.1 mg/kg/injection, schedule: Q01DX010 (ip), vehicle: saline, higher = longer survival) was 199 % of control and the T/C (endpoint: median survival time, dose: 34.0 mg/kg/injection, schedule: Q01DX010 (ip), vehicle: saline, higher = longer survival) was 199 % of control. For the same compound, the T/C (endpoint: median survival time, dose: 36.0 mg/kg/injection, schedule: Q04DX003 (ip), vehicle: saline, higher = longer survival) was 119 % of control, the T/C (endpoint: median survival time, dose: 42.0 mg/kg/injection, schedule: Q04DX004 (ip), vehicle: saline, higher = longer survival) was 122 % of control and the T/C (endpoint: median survival time, dose: 60.0 mg/kg/injection, schedule: Q04DX004 (ip), vehicle: alkali diluted with saline, higher = longer survival) was 197 % of control and 204 % of control. For the same compound, the T/C (endpoint: median survival time, dose: 73.0 mg/kg/injection, schedule: Q07DX003 (iv), vehicle: saline, higher = longer survival) was 124 % of control, the T/C (endpoint: median survival time, dose: 75.0 mg/kg/injection, schedule: Q04DX002 (ip), vehicle: saline, higher = longer survival) was 233 % of control and the T/C (endpoint: median survival time, dose: 100.0 mg/kg/injection, schedule: Q04DX004 (ip), vehicle: alkali diluted with saline, higher = longer survival) was 72 % of control. For the same compound, the T/C (endpoint: median survival time, dose: 167.0 mg/kg/injection, schedule: Q04DX004 (ip), vehicle: alkali diluted with saline, higher = longer survival) was 57 % of control, the T/C (endpoint: median tumor weight (est.), dose: 21.6 mg/kg/injection, schedule: Q04DX004 (ip), vehicle: saline, higher = larger tumour) was 65 % of control and the T/C (endpoint: median tumor weight (est.), dose: 36.0 mg/kg/injection, schedule: Q04DX004 (ip), vehicle: saline, higher = larger tumour) was 38 % of control.

`O=C(Nc1cccc(Cl)c1)ON1C(=O)C2C(C1=O)C1(Cl)C(Cl)C(Cl)C2(Cl)C1(Cl)Cl` (centres undefined) was tested, and the T/C (endpoint: median tumor weight (est.), dose: 100.0 mg/kg/injection, schedule: Q07DX002 (ip), vehicle: saline with Tween-80, higher = larger tumour) was 95 % of control, the T/C (endpoint: median tumor weight (est.), dose: 200.0 mg/kg/injection, schedule: Q07DX002 (ip), vehicle: saline with Tween-80, higher = larger tumour) was 89 % of control and the T/C (endpoint: median tumor weight (est.), dose: 400.0 mg/kg/injection, schedule: Q07DX002 (ip), vehicle: saline with Tween-80, higher = larger tumour) was 58 % of control.

From PubChem BioAssay AID212 (DTP/NCI, 2004)
